Source: publication PMC3651166, “Differential Cytotoxic Activity of a Novel Palladium-Based Compound on Prostate Cell Lines, Primary Prostate Epithelial Cells and Prostate Stem Cells” (PLoS ONE, 2013)
Entries after “also recorded” stand apart in the source; their conditions may differ.

Columns and labels:
BPH-1 = test: MTS assay, anti-growth effect on cell line; format: cell-based, human
Experimental: (§1) In this study, six different prostate cell lines (PNT1A, PNT2-C2, BPH-1, PC-3, LNCaP, P4E6) were used (Table 1). These cell lines encompass the spectrum of cellular differentiation status (basal, intermediate and luminal phenotypes), as well as the spectrum of normal, early cancer and late cancer. BPH-1 is derived from benign prostate hyperplasia (BPH), while PNT2-C2 and PNT1A are derived from normal prostate. PC-3, LNCaP and P4E6 are cancer cell lines. LNCaP, PNT2-C2, PNT1A were grown in RPMI medium with 10% FCS (foetal calf serum); PC-3 was grown in Ham’s F-12 medium with 7% FCS; BPH-1 was grown in RPMI medium with 5% FCS; P4E6 was grown in KSFM (Keratinocyte serum free medium) with 2% FCS. No antibiotics were used in any media. The cells were incubated at 37°C in a humidified atmosphere containing 5% CO2.
(§2) This assay was performed for the initial screening of the effect of the Pd complex on the cell lines and the whole cell population of primary cultures. The CellTiter 96® Aqueous One Solution Cell Proliferation Assay kit (G3580, Promega, Madison, WI, USA) was used and the manufacturer’s instructions were followed. Briefly, after treating cells that were seeded at a density of 5,000 cells per well in a 96-well plate in triplicate for a desired period (24 h, 48 h, 72 h), 20 µL of reagent was added to each well. Following 2.5 h incubation at 37°C, the absorbance was read at 485 nm using a plate reader (PolarStar Optima, BMG Labtech, UK). Percent viability was calculated using the formula (% Viability = [(Sample Absorbance/Control Absorbance)]×100.
(§3) MTS and ATP assays were performed in triplicate and data presented as the mean +/− standard deviation. IC50 values (Table 3 and Table 4) were calculated from graphs of transformed data following application of the nonlinear regression (curve fit) that represents the log(inhibitor) ‘v’ normalized response (GraphPad Prism software) (Supplementary Figures S1 and S2). For significance calculations, the Wilcoxon rank sum test was used (Sigmaplot). Flow cytometry analysis was carried out in triplicate and results are presented as an average with error bars indicating the standard error.

LNCaP = test: MTS assay, anti-growth effect on cell line; format: cell-based, human
Experimental: as §1, §2, §3

P4E6 = test: MTS assay, anti-growth effect on cell line; format: cell-based, human
Experimental: as §1, §2, §3

PC-3 = test: MTS assay, anti-growth effect on cell line; format: cell-based, human
Experimental: as §1, §2, §3

PNT1A = test: MTS assay, anti-growth effect on cell line; format: cell-based, human
Experimental: as §1, §2, §3

PNT2-C2 = test: MTS assay, anti-growth effect on cell line; format: cell-based, human
Experimental: as §1, §2, §3

[1] = tested on: stem cells (SCs), transit-amplifying cells (TAs) and committed basal cells (CBs); test: ATP viability assay on fractionated primary cells; format: cell-based
Experimental: Epithelial cells from human tumour or BPH materials were cultured for several weeks and the cells treated at very low passages. The cultured basal cell population were trypsinized, resuspended in SCM and then plated on BSA-blocked collagen I-coated plates. […] The cells that attached to substratum were trypsinised, resuspended in MACs buffer and incubated with CD133-microbeads (Cat no. 130-050-801, Miltenyi Biotec Inc., Auburn, CA, USA). MACs MS columns (Cat no. 130-042-201, Miltenyi Biotec Inc., Auburn, CA, USA) were used to select the CD133^+ and CD133^− cells. Finally, the three cell populations were obtained: stem cells (SCs) - α2β1integrin^hi/CD133^+, transit-amplifying cells (TAs) - α2β1integrin^hi/CD133^− and committed basal cells (CBs) - α2β1integrin^lo.
This assay was employed for the bioluminescent determination of the adenosine 5′-triphosphate (ATP) released from fractionated living cells (cancer stem cells, transit amplifying cells and committed basal cells). As ATP is rapidly degraded in dead cells, high intracellular levels provide a selective assay for living cells. The ATP-bioluminescent somatic cell assay kit (FLASC, Sigma-Aldrich, Saint Louis, MO, USA) was used with protocol modifications. Briefly, 50–500 cells per well were seeded in a collagen-coated 96 well plate in triplicate. After treating cells for 72 h, 150 µL of medium was removed from each well. 50 µL of cell extraction reagent was added into each original well. Following 20 min incubation at RT, 50 µL of cell extract was transferred to a white 96-well plate. Finally, 50 µL of ATP assay mix solution was added into the wells and luminescence was read using a plate reader (PolarStar Optima, BMG Labtech, UK). Percent viability was calculated using the formula (% Viability = [(Sample RLU/Control RLU)]x100 where RLU refers to relative light units.

cleaved caspase-3 = test: Western blotting for apoptosis, primary cultures; format: cell-based, human
Experimental: Following drug treatment, cell lysates were harvested using Cytobuster Protein Extraction Reagent (71009, EMD Millipore, Darmstadt, Germany) with protease inhibitors (cOmplete, EDTA-free Protease Inhibitor Cocktail Tablets, Roche Applied Science, UK). 20 µg of protein extract were loaded on 12% SDS-PAGE gels and wet-transferred to a PVDF membrane. Antibodies used include: monoclonal anti-β-actin 1∶5000 (A5316, Sigma-Aldrich), anti-LC3B 1∶3000 (Ab51520, abcam), cleaved caspase-3 (Asp175) 1∶1000 (9661S, Cell Signaling Technology) and secondary antibodies were Rabbit anti-mouse-HRP 1∶10000 (P0260, Dako) and anti-rabbit IgG HRP-linked 1∶5000 (Cell Signaling Technology Inc. 7074S). Kaleidoscope protein marker was run on each gel (161-0324, Bio-Rad).

For [PdCl(terpy)](sac)⋅2 H2O [Pd complex], the IC50 (BPH-1; BPH-1, 24 h) was 17.6 µM, the IC50 (BPH-1; BPH-1, 48 h) was 1.88 µM and the IC50 (BPH-1; BPH-1, 72 h) was 0.14 µM. For the same substance, the IC50 (LNCaP; 24 h) was 106 µM, the IC50 (LNCaP; 48 h) was 11.9 µM and the IC50 (LNCaP; 72 h) was 3.43 µM. It also gave an IC50 (P4E6; P4E6, 24 h) of 21.8 µM, an IC50 (P4E6; P4E6, 48 h) of 9.66 µM and an IC50 (P4E6; P4E6, 72 h) of 4.37 µM. It also gave an IC50 (PC-3; PC-3, 24 h) of 98.9 µM, an IC50 (PC-3; PC-3, 48 h) of 49.1 µM and an IC50 (PC-3; PC-3, 72 h) of 26.8 µM. For the same substance, the IC50 (PNT1A; 24 h) was 28 µM, the IC50 (PNT1A; 48 h) was 1.26 µM and the IC50 (PNT1A; 72 h) was 0.106 µM. For the same substance, the IC50 (PNT2-C2; PNT2-C2, 24 h) was 1.73 µM, the IC50 (PNT2-C2; PNT2-C2, 48 h) was 17.2 µM and the IC50 (PNT2-C2; PNT2-C2, 72 h) was 0.903 µM. For the same substance, the “toxicity compared to cisplatin” value ([1]; 6 µM range, ATP assay) was “comparable toxicity to cisplatin”, the “anti-growth effect compared to 25 µM Pd complex and 25 µM etoposide” value ([1]; 6.25 µM, 72 h, ATP assay, SC, TA, CB) was “less than 25 µM Pd complex but still more cytotoxic than 25 µM etoposide” and the “cytotoxicity compared to 25 µM etoposide” value ([1]; 25 µM, 72 h, ATP assay, stem cells (also TA, CB)) was “significantly more cytotoxic; also recorded: much more potent cytotoxic activity than etoposide”. For the same substance, the cell killing ([1]; 50 µM, data not shown) was “killed all cells”, the “cleaved caspase-3 (apoptosis)” value (cleaved caspase-3; BPH primary sample) was “only a positive result with the BPH sample at a low dose” and the “cleaved caspase-3 (apoptosis)” value (cleaved caspase-3; primary cancer samples) was “no evidence of cleaved caspase-3; also recorded: No apoptosis was induced”.
